# From patent publication US20130225603A1, “MDM2 INHIBITORS FOR TREATMENT OF OCULAR CONDITIONS” (SERRATA LLC, priority 2010, published 2013)
# Entries after “also recorded” stand apart in the source; their conditions may differ.
# What was measured:
# HUVECs [1] = assay: Flow cytometric analysis for apoptosis (annexin V/propidium iodide), HUVECs; format: cell-based, human; settings: HUVEC, 7.5 μM, 24 hours, compared to the control
# From the text: (§1) HUVECs were detached with collagenase/EDTA and HUVSMCs were detached with trypsin/EDTA. The cells were then washed twice with PBS, and stained with propidium iodide and annexin V-FITC (Annexin V-FITC apoptosis detection kit I, Beckton Dickinson) according to the manufacturer's instructions.
# HUVSMCs [2] = assay: Flow cytometric analysis for apoptosis (annexin V/propidium iodide), HUVSMCs; format: cell-based, human; settings: HUVSMC, 7.5 μM, 36 hours, compared to control
# From the text: as §1
# HUVECs [3] = assay: Matrigel tube assay for in vitro angiogenesis; format: cell-based, human; settings: FGF-2, 24 hours
# Experimental: Matrigel matrix (Becton Dickinson, San Jose, Calif.) was kept on ice for 24 hours. Then, 200 ill of Matrigel were added to each well of a 24 well culture plate. After hardening the Matrigel at 37° C. for 30 minutes, gels were overlaid with 500 μl of X-VIVO medium containing 3×10^4 HUVECs. […] The effect of Nutlin was inspected 24 hours under an inverted light microscope. Nine overlapping images with a 10× objective were taken of each well to perform tubule length quantification. Adobe Photoshop 7.0 (Adobe Systems Inc., San Jose, Calif.) was used to make a montage image of each well. Each montage image was then imported into LSM Image Browser v3.5 (Carl Zeiss Inc., Thornwood, N.Y.) to measure tubule length. Tubule length was then standardized to the overall pixel area examined. A masked observer assessed all measurements.
# p53 [4] = assay: p53/p21 immunofluorescence and Western blot in HUVSMCs; format: cell-based, human; settings: HUVSMC, 7.5 μM, within 8 hours
# Experimental: (§2) HUVECs and HUVSMCs were incubated at 2×10^6 in X-VIVO media and HRMECs in EBM with 10% FBS under various conditions as reported in the results. Western blot extracts were prepared by lysing cells attached cells in cold RIPA buffer in the presence of protease inhibitors for HUVEC and HUVSMC and passive lysis buffer (Promega, Madison, Wis.) for HRMEC. After sonication and centrifugation to remove cell debris, the protein yield was quantified using the BCA protein assay kit (Pierce Biotechnology Inc., Rockford, Ill.). Normalized cell lysates were then mixed with sample buffer containing 2-mercaptoethanol and SDS and heated for 5 minutes at 95° C. Equal amounts of protein were run on SDS-polyacrylamide gels before being transferred to PVDF membranes. Binding of the primary antibody against p53, p21, and beta actin was detected with enhanced chemiluminescence reagent (Amersham) using HRP-conjugated secondary antibody (1:10,000, Amersham).
# [5] = tested on: p53 siRNA infected HUVECs; assay: Cell viability of p53 siRNA infected HUVECs; format: cell-based, human; settings: 7.5 μM, FGF-2, 48 hours; p53 siRNA vs control siRNA
# Experimental: Passage 3 HUVECs were grown to confluence. pRETRO-SUPER and pRETRO-SUPER-p53 viruses were produced by GP2 cells (Clontech, Mountain View, Calif.). Supernatant was filtered and then added to HUVECs in the presence of […] polybrene followed by 1 μg/ml of Puromycin selection for 7 days.
# To determine if the p53 pathway is necessary for the observed Nutlin-3 mediated cellular effects, we infected HUVEC with retrovirus expressing either control short interfering RNA (siRNA) or p53 siRNA. […] (A and B) HUVECs were infected with a lentiviral vector expressing p53 siRNA or control siRNA for 48 hours and then underwent Puromycin selection for 72 hours.
# p53 [6] = settings: HUVEC, 8 hours, compared to Nutlin-3B or control
# Experimental: as §2
# HUVSMCs [7] = assay: Cell proliferation assay, HUVSMCs (manual count, Trypan blue exclusion); format: cell-based, human
# Experimental: (§3) Cells were seeded at a concentration of 2×10^5 for HUVECs and 2×10^4 for HUVSMCs in serum free media on 12 well plates after detachment. The cells were allowed to adhere overnight in growth media, and then incubated with X-VIVO media (Cambrex) with or without cytokines (10 ng/ml FGF-2 and 2 μg/ml heparin or 10 ng/ml VEGF-A). For HRMEC experiments, cells were seeded at a concentration of 1×10^5 and allowed to settle overnight in 6-cm plates coated with attachment factor (Cell Signaling, Danvers, Mass.). The next day, fresh 10% FBS and EBM medium was added. […] After incubation, HUVEC were detached with collagenase/EDTA and HUVSMC and HRMEC were detached with trypsin/EDTA. The cells were manually counted with a Hemacytometer (Hausser Scientific, Horsham, Pa.) using Trypan blue exclusion.
# HUVECs [8] = assay: Cell proliferation assay, HUVECs (manual count, Trypan blue exclusion); format: cell-based, human; settings: for HUVEC proliferation: 36 hours
# Experimental: as §3
# First, we performed a dose response curve on unstimulated and stimulated serum free HUVECs. […] HUVECs were either unchallenged or challenged with VEGF-A or FGF-2 during the incubation. […] Cell viability was measured at 12, 24, and 36 hours after incubation.
# HUVECs [9] = assay: TUNEL assay for apoptosis, HUVECs; format: cell-based, human; settings: serum free HUVEC, 7.5 μM, 24 hours, compared to control
# Experimental: (§4) HUVECs were plated on collagen coated plastic bottom culture dishes (MatTek Corp., Ashland, Mass.) overnight. […] HRMEC were treated with 15 μM of racemic Nutlin for 24 hours in 10% FBS. The TUNEL assay was performed following instructions provided with the kit (Roche Applied Science, Indianapolis, Ind.). Representative images of the HRMEC experiment were provided with a 4× objective using an Olympus AX70 fluorescence microscope following the addition of a nuclear counter stain. For HUVEC experiments, 5 representative fields with a 20× objective using a Zeiss confocal microscope were captured. 2 masked observers performed cell counts. For wholemount retina staining, TUNEL solution was incubated for 48 hours diluted in PBS plus 0.3% Triton-X 100 after lectin staining.
# p53 [10] = assay: p53 expression in HRMECs; format: cell-based, human; settings: racemic Nutlin-3, 10% FBS
# Experimental: as §2
# [11] = tested on: retinal vasculature of mouse pups; assay: In vivo retinal vascular development assay (subcutaneous and periocular injection)
# Experimental: A technique described by Strombland et al. was modified to study the effects of Nutlin-3 on in vivo vascular development (see Stromblad S, Fotedar A, Brickner H, et al., J. Biol. Chem. 277:13371-13374 (2002), which is incorporated herein by reference. Briefly, racemic Nutlin was administered by subcutaneous injection in the nape of the neck or in the periocular area of each eye to wild type 129 S1-VIMJ (Jackson Laboratories, Bar Harbor, Me.) mouse pups within 12 hours of birth. The mice received a total of 4 (periocular experiments) or 5 (subcutaneous neck experiments) injections of either racemic Nutlin or 100% DMSO. The first injection of Nutlin was administered at a dose of 40 mg/kg while the rest were given at a dose of 80 mg/kg for experiments involving injections in the nape of the neck. A dose of 80 mg/kg was administered for all injections in the periocular series of experiments. The pups were euthanized on postnatal day 3 and the eyes were enucleated after the fused eyelids incised.
# The eyes were then fixed in 4% paraformaldeheyde overnight and washed three times with PBS. After removing the cornea and lens, the hyaloidal (primitive) vasculature was removed and four radial incisions were made in the eyecup to flatten the retina/choroid/sclera complex. The choroid and sclera were removed from the retina and cut at the optic nerve. After the retinal wholemount was blocked with 5% bovine serum albumin, 5% normal donkey serum, and 0.5% TritonX-100 for 3 hours or overnight, the wholemount was incubated with a 1:200 dilution of GS-IB4 lectin overnight and mounted with Vectashield (Vector Laboratories). For double staining wholemount experiments, retinas were incubated with primary antibody overnight at 4° C., underwent 6 one hour washes with PBS-T, followed by incubation with secondary antibody overnight at 4° C., followed by 6 one hour washes with PBS-T prior to being cover-slipped with Vectashield. Using a fluorescent biomicroscope (Carl Zeiss Discovery V12, Thornwood, N.Y.) hyaloidal vessels, vessels connected to the optic nerve, on the surface of the retina, were dissected in a masked manner. A confocal laser (Carl Zeiss LSM 510 meta) was used to obtain images of the retinal vasculature.
# We captured images with the same laser power, objective, gain, pinhole, and amplifier offset. The resultant images were masked to the analyst assessing the images. All analyzed images were captured with a 5× objective and then exported to Adobe Photoshop 7.0 (San Jose, Calif.) as high-resolution .tiff images. Using the Magic Wand tool and histogram function, the analyst recorded the number of pixels that best represented the retinal vasculature and omitted the residual hyaloidal (fetal) vasculature that was unable to be removed during dissection. Blood vessels assessed to be residual hyaloid were found at a different focal plane than retinal blood vessels and were usually connected to the optic nerve.
# HRMECs [12] = assay: Cell viability/proliferation, HRMECs in serum; format: cell-based, human; settings: racemic Nutlin-3
# Experimental: as §3
# HUVECs [13] = assay: Apoptosis of endothelial cells (HUVECs) in serum enriched media; format: cell-based, human
# HRMECs [14] = assay: Apoptosis of HRMECs in serum (TUNEL); format: cell-based, human; settings: HRMECs in serum (10% FBS)
# Experimental: as §4
# [15] = tested on: retinal vessels of adult mice; assay: In vivo adult retinal vessel assay (intravitreal injection); design: species or system mouse; settings: five days after injection
# Experimental: Adult, three month old, 129 and C57/BL6/129S mice were anesthetized with Avertin and also given a drop of topical proparacaine 1% for local anesthesia. Using a stereo microscope, a glass capillary pipette was used to inject 1 μL of either vehicle or racemic Nutlin-3 into the vitreous of cavity of both eyes of each animal. Mice were then euthanized five days after injection. All procedures involving mice were approved and monitored by the Weill Medical College of Cornell University and Hospital for Special Surgery Animal Care and Use Committees. The eyes were then fixed in 4% paraformaldeheyde overnight and washed three times with PBS. After removing the cornea and lens, the hyaloidal (primitive) vasculature was removed and four radial incisions were made in the eyecup to flatten the retina/choroid/sclera complex. The choroid and sclera were removed from the retina and cut at the optic nerve. After the retinal wholemount was blocked with 5% bovine serum albumin, 5% normal donkey serum, and 0.5% TritonX-100 for 3 hours or overnight, the wholemount was incubated with a 1:200 dilution of GS-IB4 lectin overnight and mounted with Vectashield (Vector Laboratories). […]
smiles,measurement,setting,value
COc1ccc(C2=N[C@@H](c3ccc(Cl)cc3)[C@@H](c3ccc(Cl)cc3)N2C(=O)N2CCNC(=O)C2)c(OC(C)C)c1 [Nutlin-3A],double positive annexin V and propidium iodide cells (late apoptosis),HUVECs [1],significantly more double positive annexin V and propidium iodide cells
same,annexin V and propidium iodide staining (apoptosis),HUVSMCs [2],no significant difference
same,dose dependence of capillary tube formation inhibition,HUVECs [3]; 5 and 7.5 μM,dose dependent
same,reduction in capillary tube formation,"HUVECs [3]; HUVEC on Matrigel, compared to control",93%
same,p53 response (immunofluorescence and Western blot),p53 [4],initiated a p53 response; also recorded: increased p53 expression
same,cell viability of p53 siRNA infected HUVECs,[5],p53 siRNA infected cells had become resistant
same,p53 and p21 protein (Western blot),p53 [6],"increased p53 protein, and its downstream target p21"
same,"HUVSMC proliferation, time course","HUVSMCs [7]; 7.5 μM, serum free HUVSMCs activated with FGF-2 or 5% FBS, at 48 to 72 hours",growth inhibited
same,HUVSMC early response to increasing concentrations,"HUVSMCs [7]; 7.5, 15, 30 μM, serum free, unchallenged HUVSMCs, at 36 hours, p>0.05",did not find an early response
same,"HUVEC growth / cell viability, time course","HUVECs [8]; 7.5 μM, unstimulated, serum free HUVEC, by 36 hours",near complete cell death
same,HUVEC proliferation,"HUVECs [8]; 1, 5 or 10 μM, serum free HUVECs unchallenged or challenged with VEGF-A or FGF-2",inhibit HUVEC proliferation at all tested doses with greater activity at higher concentrations
same,TUNEL positive cells (apoptosis),HUVECs [9],significantly more cells undergoing apoptosis
COc1ccc(C2=N[C@H](c3ccc(Cl)cc3)[C@H](c3ccc(Cl)cc3)N2C(=O)N2CCNC(=O)C2)c(OC(C)C)c1 [Nutlin-3B],HUVEC proliferation,HUVECs [8]; 10 μM,little effect on HUVEC proliferation
"COc1ccc(C2=NC(c3ccc(Cl)cc3)C(c3ccc(Cl)cc3)N2C(=O)N2CCNC(=O)C2)c(OC(C)C)c1 (racemic) [Nutlin-3, (±)-4-[4,5-bis(4-chlorophenyl)-2-(2-isopropoxy-4-methoxy-phenyl)-4,5-dihydro-imidazole-1-carbonyl]-piperazin-2-one]",p53 expression in HRMECs,p53 [10],upregulation of p53
same,retinal vasculature compared to sham injected mice (images),"[11]; neonatal mice, periocular injection, FIG. 6E",less retinal vasculature
same,fewer blood vessels compared to the sham-injected mice,"[11]; neonatal mice, periorbital (periocular) injection, 80 mg/kg, postnatal day 3, p<0.01",43.8%
same,calibre of retinal vessels affected,"[11]; neonatal mice, retinal wholemounts",loss of smaller caliber vessels; also recorded: preferentially targeted capillaries and smaller blood vessels
same,reduction in the amount of retinal vessels compared to sham injected mice,"[11]; neonatal mice, subcutaneous injection in the nape of the neck, 40 then 80 mg/kg, postnatal day 3, p<0.05",27.4%
same,retinal vasculature compared to sham injected mice (images),"[11]; neonatal mice, subcutaneous injection in the nape of the neck, FIG. 6B",abrogated
same,TUNEL positive cells in the retinal vasculature,"[11]; neonatal mouse retinal wholemount, GS-IB4 lectin co-staining, rare event",TUNEL positive cells that co-localized to the retinal endothelium
same,HRMEC cell viability,HRMECs [12],sufficient to inhibit cell viability
same,apoptosis of endothelial cells,HUVECs [13],do not undergo apoptosis
same,apoptosis in HRMECs,HRMECs [14],induces apoptosis
same,thickness of the neuronal cell layers of the neurosensory retina (hematoxylin and eosin),[15],did not observe any gross changes in the thickness of the neuronal cell layers
same,retinal vasculature of adult mice compared to control,[15]; p>0.05,no reduction of the retinal vasculature; also recorded: no difference
